Measured values from PMC11284788, “NN1213 – A Potent, Long-Acting, and Selective Analog of Human Amylin” (Journal of Medicinal Chemistry, 2024).

Legend:
[1] = in vivo, iv
Procedure: Blood samples were collected at fixed time points postdose to determine full PK profiles. Plasma samples were analyzed by ELISA. Plasma concentration–time profiles were analyzed by noncompartmental analysis.
Rabbits: Female rabbits (New Zealand white, Charles River; 21–23 weeks; 2.5–3.5 kg) were group-
housed (10 per cage) in normal day–night rhythm from arrival and had free access to food and water.
The rabbits were treated against coccidiosis during their 5-week acclimation period upon arrival. Iv
dosing was performed as a bolus injection into an ear vein with a dosing volume of 0.1 mL/kg. The
dosing solution was at room temperature before injection. Venous blood sampling was performed
directly through puncture of an ear vein using a needle. A full plasma concentration–time profile was
obtained from each animal.
Blood (300 µL) was collected directly into test
tubes containing EDTA buffer (Microvette CB 300 K2E). Samples were kept on wet ice until
centrifugation (10 min, 4 °C, 3000 rpm). Plasma (100 µL) was transferred immediately to Micronic
tubes and kept at –20 °C until analysis.
Plasma analysis: Plasma samples were analyzed by a commercially available kit (Millipore, Human
Amylin ELISA, cat. #EZHA-52-K). […]
was applied and the plate was read on a fluorescent reader with an excitation/emission wavelength of
samples. The lower limit of quantification (LLOQ) was 100–500 pM.

rats = assay: Acute food intake in rats; format: in vivo, rat
hAMY1R = hAMY1R (Homo sapiens, UniProt O60894+P30988); assay: Species-specific cAMP assay, hAMY1R; conditions: ratio of cAMP EC50 values, human receptors
cAMY3R = assay: Whole-cell competition binding, cAMY3R; conditions: IC50 for the CTR divided by that of the AMYR, canine receptors
rAMY3R = biological target: T1, rAMY3R (Rattus norvegicus, UniProt P32214+Q9JJ73); assay: Whole-cell competition binding, rAMY3R; design: expressed in transfected cells; host or cells: BHK tk-ts 13, transient co-transfection (FuGENE 6); conditions: IC50 for the CTR divided by that of the AMYR, rat receptors
T1 sequence (P32214 25-479 isoform P32214-2 limits assumed): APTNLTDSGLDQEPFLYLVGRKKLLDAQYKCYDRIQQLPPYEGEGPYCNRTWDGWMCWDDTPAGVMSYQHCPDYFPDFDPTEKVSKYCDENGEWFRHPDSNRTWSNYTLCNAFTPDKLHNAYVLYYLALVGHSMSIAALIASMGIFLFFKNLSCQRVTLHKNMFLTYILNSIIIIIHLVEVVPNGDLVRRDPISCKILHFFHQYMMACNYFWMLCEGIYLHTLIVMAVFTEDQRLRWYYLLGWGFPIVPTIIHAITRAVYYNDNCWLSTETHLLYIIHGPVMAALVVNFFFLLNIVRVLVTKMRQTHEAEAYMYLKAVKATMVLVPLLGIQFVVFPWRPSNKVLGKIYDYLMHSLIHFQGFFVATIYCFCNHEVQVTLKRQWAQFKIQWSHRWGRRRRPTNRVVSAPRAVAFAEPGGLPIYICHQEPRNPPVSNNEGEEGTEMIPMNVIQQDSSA
T1 sequence (Q9JJ73 23-147 partner): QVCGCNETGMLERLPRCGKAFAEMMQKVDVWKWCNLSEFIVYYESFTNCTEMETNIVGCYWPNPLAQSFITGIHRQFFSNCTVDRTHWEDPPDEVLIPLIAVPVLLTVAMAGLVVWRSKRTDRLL

in vivo = conditions: male, Göttingen, minipig, iv

Chain of hAMY1R (P30988 25-474): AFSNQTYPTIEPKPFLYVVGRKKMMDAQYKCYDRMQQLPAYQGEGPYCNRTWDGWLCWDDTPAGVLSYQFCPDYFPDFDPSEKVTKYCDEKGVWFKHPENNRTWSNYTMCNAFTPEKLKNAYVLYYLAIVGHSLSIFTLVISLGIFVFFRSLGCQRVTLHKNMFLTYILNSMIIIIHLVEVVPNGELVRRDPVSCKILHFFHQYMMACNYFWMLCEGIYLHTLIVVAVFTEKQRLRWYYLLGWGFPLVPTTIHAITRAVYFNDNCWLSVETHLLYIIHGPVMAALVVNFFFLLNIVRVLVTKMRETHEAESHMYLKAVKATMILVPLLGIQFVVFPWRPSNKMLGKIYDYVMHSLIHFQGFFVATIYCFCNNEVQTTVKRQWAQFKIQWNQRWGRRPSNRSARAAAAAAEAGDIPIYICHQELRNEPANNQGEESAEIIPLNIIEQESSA
Chain of hAMY1R (O60894 27-148 partner): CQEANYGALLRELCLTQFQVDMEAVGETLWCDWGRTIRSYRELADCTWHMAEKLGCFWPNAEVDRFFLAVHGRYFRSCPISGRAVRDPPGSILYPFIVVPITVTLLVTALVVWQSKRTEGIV

CC[C@H](C)[C@H](NC(=O)[C@H](C)NC(=O)CNC(=O)[C@H](Cc1ccccc1)NC(=O)[C@H](CC(N)=O)NC(=O)[C@@H]1CCCN1C(=O)[C@H](CO)NC(=O)[C@H](CO)NC(=O)[C@H](Cc1c[nH]cn1)NC(=O)[C@H](CCCNC(=N)N)NC(=O)[C@H](CC(C)C)NC(=O)[C@H](Cc1ccccc1)NC(=O)[C@H](CC(=O)O)NC(=O)[C@H](C)NC(=O)[C@H](CC(C)C)NC(=O)[C@H](CCCNC(=N)N)NC(=O)[C@H](CCC(N)=O)NC(=O)[C@@H](NC(=O)[C@H](C)NC(=O)[C@@H]1CSSC[C@H](NC(=O)[C@@H](N)CCCCNC(=O)CC[C@H](NC(=O)CC[C@H](NC(=O)CCCCCCCCCCCCCCCCCCC(=O)O)C(=O)O)C(=O)O)C(=O)N[C@@H](CC(N)=O)C(=O)N[C@@H]([C@@H](C)O)C(=O)N[C@@H](C)C(=O)N[C@@H]([C@@H](C)O)C(=O)N1)[C@@H](C)O)C(=O)N1CCC[C@H]1C(=O)N[C@@H](CO)C(=O)N[C@@H](CO)C(=O)N[C@H](C(=O)N[C@@H](CC(N)=O)C(=O)N[C@H](C(=O)NCC(=O)N[C@@H](CO)C(=O)N[C@@H](CCCNC(=N)N)C(=O)N[C@H](C(=O)N[C@@H](Cc1ccc(O)cc1)C(N)=O)[C@@H](C)O)C(C)C)[C@@H](C)O [NN1213]
terminal plasma half-life (T1/2), rabbit [1]: approximately 50 h | food intake reduction, following 24 h (rats; single sc dose 3 nmol/kg, 24–48 h, compared to controls): 15% | food intake reduction, first 24 h (rats; single sc dose 3 nmol/kg, compared to controls): 25% | food intake reduction, first 24 h (rats; single sc dose 100 nmol/kg): 70% | Ratio CTR/AMY1R (human, functional) (hAMY1R): 32 | Ratio CTR/AMY3R (canine, binding) (cAMY3R): 40 | Ratio CTR/AMY3R (rat, binding) (rAMY3R): 52 | half-life (in vivo): 116 h
